In ChEMBL document CHEMBL1151524, “Synthesis and evaluation of pyrazolo[3,4-b]quinoline ribofuranosides and their derivatives as inhibitors of oncogenic Ras” (Bioorg Med Chem Lett, 1996):

What follows are molecules tested against T1, GTPase HRas (Homo sapiens, UniProt P01112) (assay: In vitro for inhibition of nucleotide exchange process of oncogenic Ras).
T1 sequence (P01112 whole entry, looked up): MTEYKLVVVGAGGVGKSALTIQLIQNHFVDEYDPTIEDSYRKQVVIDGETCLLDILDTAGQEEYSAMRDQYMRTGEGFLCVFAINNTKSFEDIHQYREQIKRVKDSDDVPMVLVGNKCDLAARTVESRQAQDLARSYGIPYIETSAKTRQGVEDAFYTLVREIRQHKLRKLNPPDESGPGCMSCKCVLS

| Compound | IC50 [µM] |
| --- | --- |
| COc1ccc2nc3c(c(C)nn3[C@@H]3O[C@H](COC(=O)c4ccccc4)[C@@H](OC(=O)c4ccccc4)[C@H]3OC(=O)c3ccccc3)c(Cl)c2c1 | 10 |

These molecules were tested against T1, GTPase HRas (assay: Inhibition of nucleotide exchange process of oncogenic Ras in vitro).

| Compound | IC50 [µM] |
| --- | --- |
| COc1ccc2nc3c(c(C)nn3[C@H]3CN(Sc4ccccc4[N+](=O)[O-])C[C@@H](CO[Si](C)(C)C(C)(C)C)O3)c(Cl)c2c1 | 1 |
| COc1ccc2nc3c(c(C)nn3[C@@H]3O[C@H](COC(=O)c4ccco4)[C@@H](OC(=O)c4ccco4)[C@H]3OC(=O)c3ccco3)c(Cl)c2c1 | 10.5 |
| COc1ccc2nc3c(c(C)nn3[C@H]3CN(Sc4ccccc4[N+](=O)[O-])C[C@@H](CO)O3)c(Cl)c2c1 | 14 |
| CCOC(=O)/C=C/C[C@@H]1CN(Sc2ccccc2[N+](=O)[O-])C[C@H](n2nc(C)c3c(Cl)c4cc(OC)ccc4nc32)O1 | 16 |
| COc1ccc2nc3c(c(C)nn3[C@H]3CN(S(=O)(=O)c4ccc([N+](=O)[O-])cc4)C[C@@H](CO[Si](C)(C)C(C)(C)C)O3)c(Cl)c2c1 | 5 |
| COc1ccc2nc3c(c(C)nn3[C@H]3CN(S(=O)(=O)c4ccccc4)C[C@@H](CO)O3)c(Cl)c2c1 | 12 |
| COc1ccc2nc3c(c(C)nn3[C@H]3CN(S(=O)(=O)c4ccc([N+](=O)[O-])cc4)C[C@@H](CO)O3)c(Cl)c2c1 | 8 |
| COc1ccc2nc3c(c(C)nn3[C@H]3C=C[C@@H](COC(=O)c4ccccc4)O3)c(Cl)c2c1 | 80 |
| COc1ccc2nc3c(c(C)nn3[C@H]3CN(Sc4ccc([N+](=O)[O-])cc4)C[C@@H](C/C=C/C(=O)c4ccccc4)O3)c(Cl)c2c1 | 7.4 |
| COc1ccc2nc3c(c(C)nn3[C@H]3CN(Sc4ccc([N+](=O)[O-])cc4)C[C@@H](C/C=C/C(C)=O)O3)c(Cl)c2c1 | 3 |
| COc1ccc2nc3c(c(C)nn3[C@@H]3O[C@H](O/C=C/C(=O)c4ccccc4)[C@@H](O)[C@H]3O)c(Cl)c2c1 | 10 |
| COc1ccc2nc3c(c(C)nn3[C@H]3CN(Sc4ccccc4[N+](=O)[O-])C[C@@H](C/C=C/C(=O)c4ccccc4)O3)c(Cl)c2c1 | 4.7 |
| COc1ccc2nc3c(c(C)nn3[C@@H]3O[C@H](COC(=O)c4ccccc4)[C@H]4OC(=S)O[C@H]43)c(Cl)c2c1 | 15 |
| COc1ccc2nc3c(c(C)nn3[C@H]3CN(S(=O)(=O)c4ccc([N+](=O)[O-])cc4)C[C@@H](C/C=C/C(=O)c4ccccc4)O3)c(Cl)c2c1 | 7 |
| COc1ccc2nc3c(c(C)nn3[C@H]3CN(S(=O)(=O)c4ccccc4)C[C@@H](CO[Si](C)(C)C(C)(C)C)O3)c(Cl)c2c1 | 14 |
| COc1ccc2nc3c(c(C)nn3[C@H]3CN(S(=O)(=O)c4ccc(NC(C)=O)cc4)C[C@@H](CO[Si](C)(C)C(C)(C)C)O3)c(Cl)c2c1 | 27 |
| COc1ccc2nc3c(c(C)nn3[C@H]3CN(Sc4ccc([N+](=O)[O-])cc4)C[C@@H](CO)O3)c(Cl)c2c1 | 6.7 |
| COc1ccc2nc3c(c(C)nn3[C@H]3C=C[C@@H](O/C=C/C(=O)c4ccccc4)O3)c(Cl)c2c1 | 35 |
| COc1ccc2nc3c(c(C)nn3[C@@H]3O[C@H](OC(O)CC(=O)c4ccccc4)[C@H]4OC(=S)O[C@H]43)c(Cl)c2c1 (stereo not given in full) | 1.5 |
| COc1ccc2nc3c(c(C)nn3[C@H]3CN(Sc4ccc([N+](=O)[O-])cc4)C[C@@H](CO[Si](C)(C)C(C)(C)C)O3)c(Cl)c2c1 | 50 |

The molecules below were run against T1, GTPase HRas (assay: Inhibition of nucleotide exchange process of oncogenic Ras at concentration 50 uM).

| Compound | inhibition [%] |
| --- | --- |
| COc1ccc2nc3c(c(C)nn3[C@@H]3O[C@H](COC(=O)c4ccoc4)[C@@H](OC(=O)c4ccoc4)[C@H]3OC(=O)c3ccoc3)c(Cl)c2c1 | 49 |
| COc1ccc2nc3c(c(C)nn3[C@H]3CNC[C@@H](CO)O3)c(Cl)c2c1 | 0 |
| COc1ccc2nc3c(c(C)nn3[C@H]3CN(Sc4ccccc4[N+](=O)[O-])C[C@@H](C/C=C/C(C)=O)O3)c(Cl)c2c1 | 88 |
| COc1ccc2nc3c(c(C)nn3[C@H]3CN(S(=O)(=O)c4ccccc4)C[C@@H](COC(=O)c4ccccc4)O3)c(Cl)c2c1 | 47 |
| COc1ccc2nc3c(c(C)nn3[C@@H]3O[C@H](COC(C)=O)[C@@H](OC(C)=O)[C@H]3OC(C)=O)c(Cl)c2c1 | 3 |
| COc1ccc2nc3c(c(C)nn3[C@H]3C=C[C@@H](OC(O)CC(=O)c4ccccc4)O3)c(Cl)c2c1 (stereo not given in full) | 48 |
| COc1ccc2nc3c(c(C)nn3[C@@H]3O[C@H](COC(=O)c4ccccc4)[C@@H](O)[C@H]3O)c(Cl)c2c1 | 16 |
| COc1ccc2nc3c(c(C)nn3[C@@H]3O[C@H](COC(=O)c4ccccc4)[C@@H](OC(C)=O)[C@H]3OC(C)=O)c(Cl)c2c1 | 44 |
| COc1ccc2nc3c(c(C)nn3[C@H]3C=C[C@@H](OCCC(=O)c4ccccc4)O3)c(Cl)c2c1 | 25 |
| COc1ccc2nc3c(c(C)nn3[C@@H]3O[C@H](COC(=O)c4ccc([N+](=O)[O-])cc4)[C@@H](OC(=O)c4ccc([N+](=O)[O-])cc4)[C@H]3OC(=O)c3ccc([N+](=O)[O-])cc3)c(Cl)c2c1 | 59 |
| COc1ccc2nc3c(c(C)nn3[C@@H]3O[C@H](O/C=C/C(=O)c4ccccc4)[C@H]4OC(C)(C)O[C@H]43)c(Cl)c2c1 | 53 |
| COc1ccc2nc3c(c(C)nn3[C@@H]3O[C@H](COC(=O)c4cccnc4)[C@@H](OC(=O)c4cccnc4)[C@H]3OC(=O)c3cccnc3)c(Cl)c2c1 | 33 |
| COc1ccc2nc3c(c(C)nn3[C@@H]3O[C@H](COC(=O)c4ccccc4)[C@@H](OCc4ccccc4)[C@H]3OCc3ccccc3)c(Cl)c2c1 | 53 |
| COc1ccc2nc3c(c(C)nn3[C@H]3CC[C@@H](COC(=O)c4ccccc4)O3)c(Cl)c2c1 | 38 |
| COc1ccc(C(=O)OC[C@H]2O[C@@H](n3nc(C)c4c(Cl)c5cc(OC)ccc5nc43)[C@H](OC(=O)c3ccc(OC)cc3)[C@@H]2OC(=O)c2ccc(OC)cc2)cc1 | 44 |
| COc1ccc2nc3c(c(C)nn3[C@@H]3O[C@H](OCc4ccccc4)[C@@H](OCc4ccccc4)[C@H]3OCc3ccccc3)c(Cl)c2c1 | 35 |
| COc1ccc2nc3c(c(C)nn3[C@@H]3O[C@H](COC(=O)Cc4ccccc4)[C@@H](OC(=O)Cc4ccccc4)[C@H]3OC(=O)Cc3ccccc3)c(Cl)c2c1 | 62 |
| CCOC(=O)/C=C/C[C@@H]1CN(Sc2ccc([N+](=O)[O-])cc2)C[C@H](n2nc(C)c3c(Cl)c4cc(OC)ccc4nc32)O1 | 64 |
| COc1ccc2nc3c(c(C)nn3[C@@H]3O[C@H](COC(=O)C(C)C)[C@@H](OC(=O)C(C)C)[C@H]3OC(=O)C(C)C)c(Cl)c2c1 | 33 |
